Measurements published in patent publication US20090065745A1, “ANTI-DEGRADATION AGENT” (priority 2005, published 2009).

assay: Measurement of dynamic hydration number (relaxation time T1); assay type: physicochemical; details: at 25° C., in water
From the text: First, the concept of the “dynamic hydration number” used in the present invention is explained. It is considered that the initial reaction of deterioration is caused at an “interface”, i.e., any of interfaces between gas and liquid, between liquid and solid and between liquid and liquid. In the case of almost all of foods, it is considered that the initial reaction of deterioration thereof is caused at an interface between oil and water. Here, if consideration is mainly made on the case where a configuration of the food is an aqueous system, water is generally classified into two types, i.e., liberated water and combined water. It is considered that among these waters, the liberated water frequently constitutes a factor relating to the initial reaction of deterioration.
The control of the liberated water can be realized by constraining a free motion of water molecules. The “dynamic hydration number” of the compound is an index showing a degree of constraint of free motion of water when the compound is dissolved in water. […] The dynamic hydration number of the compound may be readily measured, for example, by the following method.
25.0 mg of p-hydroxybenzoic acid was dissolved in pure water, and pure water was further added the resultant solution to obtain 50 mL of a solution (blank). The blank was added to samples used in amounts of 1.008 g and 1.512 g, respectively, to prepare sample solutions 1 and 2 having total weights of 4.013 g and 3.001 g, respectively. Using a spectrophotometer “Inova 500” manufactured by Varian Corp., the relaxation time (T1) of the respective sample solutions was measured at 25° C. to determine a dynamic hydration number thereof.

Row | Compound | Dynamic hydration number (nDHN)
1 | O=C(CO)[C@@H](O)[C@H](O)[C@H](O)CO [Fructose] | 16.5
2 | OC[C@H]1O[C@@](CO)(O[C@H]2O[C@H](CO)[C@@H](O)[C@H](O)[C@H]2O)[C@@H](O)[C@@H]1O [Sucrose] | 15.0
3 | Maltotriol | 211
4 | Maltotriose | 204
5 | NCCCC[C@H](N)C(=O)O [Lysine] | 3.0

Now from value to compound:

Row | Dynamic hydration number (nDHN) | Compound
6 | 15.5 | O=C[C@H](O)[C@@H](O)[C@H](O)CO [Xylose]
7 | 21.0 | CC(C)[C@H](N)C(=O)O [Valine]

assay: Solubility in hexane (oil solubility); assay type: physicochemical; details: at 30° C.
From the text: However, the solubility in triglyceride of the compound varies depending upon constitutional fatty acids of the triglyceride. Therefore, in the present invention, the oil insolubility and oil solubility of the compound is defined by a solubility thereof in hexane.

Row | Solubility in hexane [mg/mL] | Compound | Oil solubility class (solubility in hexane)
8 | >500 | tocopherol [Vitamin E (tocopherol)] | Oil-soluble (oil-soluble antioxidant having a solubility in 1 L of hexane of not less than 50 g as measured at 30° C.)
